Data from patent EP4516280A1, “COSMETIC COMPOSITIONS” (The Boots Company plc, priority 2023, dated 2025).

Tested on: mushroom tyrosinase
Test: Tyrosinase inhibition test (L-DOPA oxidation, absorbance at 470 nm)
Type: biochemical
Details: single compound, Concentration 0.1%
Description: The tyrosinase inhibition test was used to determine the tyrosinase inhibition ability of the compounds. The test comprises adding the test compound to a solution of L-dihydroxyphenylalanine (L-(DOPA)) and mushroom tyrosinase. L-(DOPA) is converted to […] by the mushroom tyrosinase, causing a brown colour to form. Inhibition of this reaction prevents the brown colour formation. The lighter the colour at the end of the reaction, the stronger is the inhibitory effect of the active. Absorbance data may be collected using a plate reacted set up to have a kinetic read every 1 minute for 30 minutes, where absorbance is read at 470 nm.

Row | Compound | Tyrosinase Inhibition (%)
1 | CCCCCCCCCCCCCCC[C@@H](O)[C@@H](N)CO [K, Sphinganine] | -5.78
2 | C=C(C)[C@@H]1CCC(C)=C[C@H]1c1c(O)cc(CCCCC)cc1O [G, Cannabidiol isolate (CBD)] | 9.134
3 | CC1(C)[C@@H](O[C@H]2O[C@H](C(=O)[O-])[C@@H](O)[C@H](O)[C@H]2O[C@@H]2O[C@H](C(=O)[O-])[C@@H](O)[C@H](O)[C@H]2O)CC[C@]2(C)[C@H]3C(=O)C=C4[C@@H]5C[C@@](C)(C(=O)O)CC[C@]5(C)CC[C@@]4(C)[C@]3(C)CC[C@@H]12.[K+].[K+] [H, Dipotassium glycyrrhizate (DPG)] | 54.567
4 | Feruloyl oligopeptide-33 | 41.765
5 | O=C(O)C(O)c1ccccc1 (centres unmarked) [B, Mandelic acid] | 80.279
